From the kinase profiling compilation of Christmann-Franck et al. (2016)

What was measured:
Assay in all cases: SelectScreen, TR FRET
Conditions in all cases: compound 5.0 µM
[1] = molecular target: PTK6 (human) (UniProt Q13882)
[2] = molecular target: MUSK (human) (UniProt O15146)
[3] = molecular target: MAPKAPK5 (human) (UniProt Q8IW41)
[4] = molecular target: ERBB4 (human) (UniProt Q15303)
[5] = molecular target: CDK1 CCNB1 (human) (UniProt P06493+P14635)
[6] = molecular target: LCK (human) (UniProt P06239)
[7] = molecular target: ADRBK1 (human) (UniProt P25098)
[8] = molecular target: GRK7 (human) (UniProt Q8WTQ7)
[9] = molecular target: CSNK1E (human) (UniProt P49674)
[10] = molecular target: NEK2 (human) (UniProt P51955)
[11] = molecular target: PDPK1 (human) (UniProt O15530)
[12] = molecular target: PAK6 (human) (UniProt Q9NQU5)
[13] = molecular target: CLK2 (human) (UniProt P49760)
Chain of CLK2 (human) (P49760 whole entry, looked up): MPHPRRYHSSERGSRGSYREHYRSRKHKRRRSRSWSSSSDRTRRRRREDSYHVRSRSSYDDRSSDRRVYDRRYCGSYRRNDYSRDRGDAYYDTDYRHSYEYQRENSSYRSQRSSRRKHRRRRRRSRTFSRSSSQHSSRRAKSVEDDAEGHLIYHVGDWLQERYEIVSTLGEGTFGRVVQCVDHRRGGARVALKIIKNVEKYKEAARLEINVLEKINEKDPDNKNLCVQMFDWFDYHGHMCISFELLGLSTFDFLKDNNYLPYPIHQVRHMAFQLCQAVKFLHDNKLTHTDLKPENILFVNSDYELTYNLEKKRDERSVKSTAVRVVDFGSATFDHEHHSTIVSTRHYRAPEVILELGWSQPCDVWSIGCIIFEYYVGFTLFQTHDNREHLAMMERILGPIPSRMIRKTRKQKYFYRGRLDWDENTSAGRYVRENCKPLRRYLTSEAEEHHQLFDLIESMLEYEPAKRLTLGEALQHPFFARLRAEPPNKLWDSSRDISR

[14] = molecular target: BTK (human) (UniProt Q06187)
[15] = molecular target: SGK3 (human) (UniProt Q96BR1)
[16] = molecular target: RPS6KA1 KD1 KD2 (human) (UniProt Q15418)
[17] = molecular target: PRKCB2 (human) (UniProt P05771)
[18] = molecular target: FGFR4 (human) (UniProt P22455)
Chain of FGFR4 (human) (P22455 whole entry, looked up): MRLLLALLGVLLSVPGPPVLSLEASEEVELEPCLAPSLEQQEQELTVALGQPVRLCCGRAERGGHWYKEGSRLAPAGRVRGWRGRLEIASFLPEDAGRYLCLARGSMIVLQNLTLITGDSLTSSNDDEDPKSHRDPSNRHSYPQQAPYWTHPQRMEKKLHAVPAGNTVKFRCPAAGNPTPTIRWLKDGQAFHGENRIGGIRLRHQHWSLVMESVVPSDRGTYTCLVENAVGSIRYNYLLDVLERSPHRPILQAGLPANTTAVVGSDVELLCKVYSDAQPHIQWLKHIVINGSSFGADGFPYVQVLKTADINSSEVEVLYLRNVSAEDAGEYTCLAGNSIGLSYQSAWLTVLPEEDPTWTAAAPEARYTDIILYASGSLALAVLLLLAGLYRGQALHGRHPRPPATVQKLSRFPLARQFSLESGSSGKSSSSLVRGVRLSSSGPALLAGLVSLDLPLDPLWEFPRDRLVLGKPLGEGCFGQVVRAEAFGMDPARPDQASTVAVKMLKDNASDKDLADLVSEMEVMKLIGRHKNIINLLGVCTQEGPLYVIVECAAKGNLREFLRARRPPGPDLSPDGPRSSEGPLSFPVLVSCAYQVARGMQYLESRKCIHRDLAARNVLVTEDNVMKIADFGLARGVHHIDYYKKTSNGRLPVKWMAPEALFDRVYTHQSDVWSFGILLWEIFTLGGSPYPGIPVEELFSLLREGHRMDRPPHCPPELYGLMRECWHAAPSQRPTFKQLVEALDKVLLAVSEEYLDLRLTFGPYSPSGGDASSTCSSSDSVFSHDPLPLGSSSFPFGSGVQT

[19] = molecular target: PAK4 (human) (UniProt O96013)
[20] = molecular target: PRKCZ (human) (UniProt Q05513)
[21] = molecular target: RPS6KA4 KD1 KD2 (human) (UniProt O75676)
[22] = molecular target: JAK3 JH1 JH2 (human) (UniProt P52333)
[23] = molecular target: MAP3K9 (human) (UniProt P80192)
[24] = molecular target: ABL2 (human) (UniProt P42684)
[25] = molecular target: ERBB2 (human) (UniProt P04626)
[26] = molecular target: TBK1 (human) (UniProt Q9UHD2)
Chain of TBK1 (human) (Q9UHD2 whole entry, looked up): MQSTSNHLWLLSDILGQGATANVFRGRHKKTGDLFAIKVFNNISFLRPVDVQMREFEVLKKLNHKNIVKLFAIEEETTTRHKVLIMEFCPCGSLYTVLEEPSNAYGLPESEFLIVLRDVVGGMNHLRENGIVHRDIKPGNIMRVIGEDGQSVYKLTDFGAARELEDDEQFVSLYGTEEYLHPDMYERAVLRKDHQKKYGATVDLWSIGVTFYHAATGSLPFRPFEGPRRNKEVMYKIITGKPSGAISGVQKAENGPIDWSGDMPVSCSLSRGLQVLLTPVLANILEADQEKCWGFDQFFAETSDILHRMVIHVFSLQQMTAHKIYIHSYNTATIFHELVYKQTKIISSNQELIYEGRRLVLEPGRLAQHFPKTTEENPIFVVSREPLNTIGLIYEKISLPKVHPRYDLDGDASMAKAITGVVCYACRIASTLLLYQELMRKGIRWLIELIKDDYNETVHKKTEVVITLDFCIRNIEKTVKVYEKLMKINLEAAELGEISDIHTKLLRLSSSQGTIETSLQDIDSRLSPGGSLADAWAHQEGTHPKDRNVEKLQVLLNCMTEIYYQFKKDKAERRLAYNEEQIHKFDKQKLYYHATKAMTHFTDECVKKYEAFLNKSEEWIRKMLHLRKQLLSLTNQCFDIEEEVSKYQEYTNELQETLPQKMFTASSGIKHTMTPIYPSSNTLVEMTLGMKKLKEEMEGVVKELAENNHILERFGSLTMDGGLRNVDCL

[27] = molecular target: RPS6KA3 KD1 KD2 (human) (UniProt P51812)
[28] = molecular target: CSNK2A2 (human) (UniProt P19784)
Chain of CSNK2A2 (human) (P19784 whole entry, looked up): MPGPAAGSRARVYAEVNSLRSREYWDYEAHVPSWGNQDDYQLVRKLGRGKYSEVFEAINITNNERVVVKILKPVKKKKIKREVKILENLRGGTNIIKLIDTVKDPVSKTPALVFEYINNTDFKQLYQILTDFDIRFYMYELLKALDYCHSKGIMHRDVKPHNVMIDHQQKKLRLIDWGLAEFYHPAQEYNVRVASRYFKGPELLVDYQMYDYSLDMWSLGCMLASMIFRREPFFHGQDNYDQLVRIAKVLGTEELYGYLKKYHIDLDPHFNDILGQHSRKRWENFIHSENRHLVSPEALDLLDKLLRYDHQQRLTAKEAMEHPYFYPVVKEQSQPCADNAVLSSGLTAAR

[29] = molecular target: MYLK2 (human) (UniProt Q9H1R3)
Chain of MYLK2 (human) (Q9H1R3 whole entry, looked up): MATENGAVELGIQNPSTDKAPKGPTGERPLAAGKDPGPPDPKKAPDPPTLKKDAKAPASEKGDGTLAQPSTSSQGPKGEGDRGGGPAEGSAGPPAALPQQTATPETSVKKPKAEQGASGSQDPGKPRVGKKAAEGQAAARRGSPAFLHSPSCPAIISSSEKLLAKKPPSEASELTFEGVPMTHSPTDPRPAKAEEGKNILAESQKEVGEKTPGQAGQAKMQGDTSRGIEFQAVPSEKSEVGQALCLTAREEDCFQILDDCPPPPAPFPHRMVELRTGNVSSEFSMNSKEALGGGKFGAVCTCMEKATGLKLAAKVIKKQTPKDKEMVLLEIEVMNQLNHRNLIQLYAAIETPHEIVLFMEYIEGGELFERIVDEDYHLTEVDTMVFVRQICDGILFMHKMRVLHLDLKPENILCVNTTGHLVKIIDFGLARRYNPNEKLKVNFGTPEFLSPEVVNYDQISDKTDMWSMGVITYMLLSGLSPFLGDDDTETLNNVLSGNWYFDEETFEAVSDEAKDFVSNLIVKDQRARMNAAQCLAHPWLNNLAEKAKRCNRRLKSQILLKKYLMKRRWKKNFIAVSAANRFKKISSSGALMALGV

[30] = molecular target: MAP4K4 (human) (UniProt O95819)
Chain of MAP4K4 (human) (O95819 whole entry, looked up): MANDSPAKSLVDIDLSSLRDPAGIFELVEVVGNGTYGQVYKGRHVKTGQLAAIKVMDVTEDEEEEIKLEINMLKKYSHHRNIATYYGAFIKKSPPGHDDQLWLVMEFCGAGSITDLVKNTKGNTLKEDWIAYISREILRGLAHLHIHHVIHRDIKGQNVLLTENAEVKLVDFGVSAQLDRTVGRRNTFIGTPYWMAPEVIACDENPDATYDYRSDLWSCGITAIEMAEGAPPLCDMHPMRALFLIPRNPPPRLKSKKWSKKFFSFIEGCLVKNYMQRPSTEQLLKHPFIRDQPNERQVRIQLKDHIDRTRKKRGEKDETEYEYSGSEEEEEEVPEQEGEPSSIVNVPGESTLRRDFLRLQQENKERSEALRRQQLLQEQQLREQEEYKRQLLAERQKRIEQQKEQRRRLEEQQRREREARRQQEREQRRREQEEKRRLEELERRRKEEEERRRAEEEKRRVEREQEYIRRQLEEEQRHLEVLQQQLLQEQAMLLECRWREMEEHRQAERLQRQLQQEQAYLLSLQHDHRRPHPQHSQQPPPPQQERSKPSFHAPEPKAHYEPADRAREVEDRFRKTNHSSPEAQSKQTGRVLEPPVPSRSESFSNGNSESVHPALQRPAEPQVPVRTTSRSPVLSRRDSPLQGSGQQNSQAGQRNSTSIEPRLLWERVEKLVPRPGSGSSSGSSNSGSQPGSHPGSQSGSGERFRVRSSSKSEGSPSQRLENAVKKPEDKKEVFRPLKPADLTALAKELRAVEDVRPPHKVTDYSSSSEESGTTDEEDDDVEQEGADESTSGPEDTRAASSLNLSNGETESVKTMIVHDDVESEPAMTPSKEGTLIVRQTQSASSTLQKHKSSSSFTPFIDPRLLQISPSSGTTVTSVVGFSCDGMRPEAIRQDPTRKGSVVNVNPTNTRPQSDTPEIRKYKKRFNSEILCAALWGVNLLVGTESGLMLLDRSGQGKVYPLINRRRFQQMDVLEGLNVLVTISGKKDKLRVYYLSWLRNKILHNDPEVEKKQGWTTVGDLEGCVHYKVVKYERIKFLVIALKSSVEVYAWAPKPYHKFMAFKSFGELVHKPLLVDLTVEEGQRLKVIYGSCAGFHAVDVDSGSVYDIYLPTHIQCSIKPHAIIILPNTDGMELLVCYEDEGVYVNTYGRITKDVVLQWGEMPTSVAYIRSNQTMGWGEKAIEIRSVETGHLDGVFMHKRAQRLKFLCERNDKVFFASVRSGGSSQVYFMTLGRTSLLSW

[31] = molecular target: EPHB2 (human) (UniProt P29323)
[32] = molecular target: CSNK1G3 (human) (UniProt Q9Y6M4)
[33] = molecular target: FGR (human) (UniProt P09769)
Chain of FGR (human) (P09769 whole entry, looked up): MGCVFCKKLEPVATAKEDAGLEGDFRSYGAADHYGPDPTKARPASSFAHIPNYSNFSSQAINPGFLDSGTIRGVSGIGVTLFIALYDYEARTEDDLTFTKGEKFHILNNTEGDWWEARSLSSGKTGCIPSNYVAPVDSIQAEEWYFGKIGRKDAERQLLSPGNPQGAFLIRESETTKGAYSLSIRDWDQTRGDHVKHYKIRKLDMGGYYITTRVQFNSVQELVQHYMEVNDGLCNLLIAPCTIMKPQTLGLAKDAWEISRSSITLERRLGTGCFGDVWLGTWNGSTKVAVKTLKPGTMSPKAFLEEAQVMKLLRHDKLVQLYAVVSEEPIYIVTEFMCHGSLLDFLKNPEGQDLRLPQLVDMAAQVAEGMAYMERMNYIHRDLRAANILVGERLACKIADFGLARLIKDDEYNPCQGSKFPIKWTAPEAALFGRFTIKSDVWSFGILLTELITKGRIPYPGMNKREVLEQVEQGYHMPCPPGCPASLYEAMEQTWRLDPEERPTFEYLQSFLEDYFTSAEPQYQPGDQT

[34] = molecular target: PDGFRA (human) (UniProt P16234)
[35] = molecular target: MATK (human) (UniProt P42679)
[36] = molecular target: PRKD3 (human) (UniProt O94806)
[37] = molecular target: EPHA2 (human) (UniProt P29317)
[38] = molecular target: FGFR3 (human) (UniProt P22607)
[39] = molecular target: MERTK (human) (UniProt Q12866)
[40] = molecular target: FGFR1 (human) (UniProt P11362)

Nc1cc(C(F)(F)F)c(-c2cc(N3CCOCC3)nc(N3CCOCC3)n2)cn1
inhibition [1]: -10%
inhibition [2]: 5%
inhibition [3]: -1%
inhibition [4]: 10%
inhibition [5]: 9%
inhibition [6]: 7%
inhibition [7]: 1%
inhibition [8]: 0%
inhibition [9]: 11%
inhibition [10]: 7%
inhibition [11]: 4%
inhibition [12]: 0%
inhibition [13]: 15%
inhibition [14]: 3%
inhibition [15]: 20%
inhibition [16]: 5%
inhibition [17]: 8%
inhibition [18]: 5%
inhibition [19]: -2%
inhibition [20]: 2%
inhibition [21]: 6%
inhibition [22]: 7%
inhibition [23]: 2%
inhibition [24]: -3%
inhibition [25]: -4%
inhibition [26]: 7%
inhibition [27]: 2%
inhibition [28]: -2%
inhibition [29]: 8%
inhibition [30]: 1%
inhibition [31]: 0%
inhibition [32]: -3%
inhibition [33]: 15%
inhibition [34]: 5%
inhibition [35]: 0%
inhibition [36]: 8%
inhibition [37]: 8%
inhibition [38]: 2%
inhibition [39]: 3%
inhibition [40]: 4%
